Columns and labels:
giant foxtail = assay: Test A preemergence; type: in vivo, Setaria faberii; details: for Plant response rating, Foxtail, Giant: 125 g ai/ha, 0 to 100 scale where 0 is no effect and 100 is complete control; for Foxtail, Giant plant response rating: 500 g ai/ha, 0 to 100 scale, 0 no effect, 100 complete control, approx. 10 days
Outline: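 Compounds in non-phytotoxic solvent with surfactant applied as soil spray preemergence, or postemergence to plants 2-10 cm at one- to two-leaf stage, in loam/sand. After approximately 10 days in greenhouse, injury rated visually versus untreated controls, 0 (no effect) to 100 (complete control).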

rice = assay: Test B flooded paddy test; type: in vivo, Oryza sativa; details: Flood, 250 g ai/ha; 0 to 100 scale where 0 is no effect and 100 is complete control
Outline: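 2-leaf stage plants; pots flooded to 3 cm, compound added to paddy water, depth maintained. Greenhouse 13–15 d. Visual rating vs untreated controls, 0 (no effect) to 100 (complete control); dash = no result.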

yellow nutsedge [1] = assay: Test C preemergence; type: in vivo, Cyperus esculentus; details: for Nutsedge, Yellow plant response rating: preemergence; for Plant response rating, Nutsedge, Yellow: Preemergence, 31 g ai/ha, scale 0 to 100, 0 no effect, 100 complete control
Outline: (§1)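 Visual injury score versus untreated controls, 0 = no effect, 100 = complete control, taken 13 to 15 days after treatment in the greenhouse. Pre-emergence pots held loam/sand; post-emergence plants grew in sphagnum peat/vermiculite mix and were sprayed at the 1- to 4-leaf stage.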

pigweed [2] = assay: Test C preemergence; type: in vivo, Amaranthus retroflexus; details: for Pigweed plant response rating: preemergence; for Plant response rating, Pigweed: Preemergence, 31 g ai/ha, scale 0 to 100, 0 no effect, 100 complete control
Outline: as §1

soybean = assay: Test C preemergence; type: in vivo, Glycine max; details: for Soybean plant response rating: preemergence; for Plant response rating, Soybean: Preemergence, 31 g ai/ha, scale 0 to 100, 0 no effect, 100 complete control
Outline: as §1

velvetleaf = assay: Test C preemergence; type: in vivo, Abutilon theophrasti; details: for Velvetleaf plant response rating: preemergence; for Plant response rating, Velvetleaf: Preemergence, 31 g ai/ha, scale 0 to 100, 0 no effect, 100 complete control
Outline: as §1

blackgrass = assay: Test C postemergence; type: in vivo, Alopecurus myosuroides; details: for Blackgrass plant response rating: 16 g ai/ha, visual rating; for Blackgrass plant response rating / Plant response rating (0 to 100), Blackgrass: postemergence; for Blackgrass plant response rating / Plant response rating, Blackgrass: scale 0 to 100 (0 no effect, 100 complete control); for Plant response rating (0 to 100), Blackgrass: 125 g ai/ha; for Plant response rating, Blackgrass: Postemergence
Outline: as §1

Italian ryegrass = assay: Test C postemergence; type: in vivo, Lolium multiflorum; details: for Plant response rating (0 to 100), Ryegrass, Italian: 125 g ai/ha, postemergence; for Plant response rating, Ryegrass, Italian: Postemergence, scale 0 to 100 (0 no effect, 100 complete control)
Outline: as §1

wheat, winter = assay: Test C postemergence; type: in vivo, Triticum aestivum; details: for Plant response rating (0 to 100), Wheat: 125 g ai/ha, postemergence; for Plant response rating, Wheat: Postemergence, scale 0 to 100 (0 no effect, 100 complete control)
Outline: as §1

lambsquarters = assay: Test C postemergence; type: in vivo, Chenopodium album; details: for Plant response rating (0 to 100), Lambsquarters: 125 g ai/ha, postemergence; for Plant response rating, Lambsquarters: Postemergence, scale 0 to 100 (0 no effect, 100 complete control)
Outline: as §1

yellow nutsedge [3] = assay: Test C postemergence; type: in vivo, Cyperus esculentus; details: for Plant response rating (0 to 100), Nutsedge, Yellow: 125 g ai/ha, postemergence; for Plant response rating, Nutsedge, Yellow: Postemergence, scale 0 to 100 (0 no effect, 100 complete control)
Outline: as §1

pigweed [4] = assay: Test C postemergence; type: in vivo, Amaranthus retroflexus; details: for Plant response rating (0 to 100), Pigweed: 125 g ai/ha, postemergence; for Plant response rating, Pigweed: Postemergence, scale 0 to 100 (0 no effect, 100 complete control)
Outline: as §1

ragweed = assay: Test C postemergence; type: in vivo, Ambrosia elatior; details: for Plant response rating (0 to 100), Ragweed: 125 g ai/ha, postemergence; for Plant response rating, Ragweed: Postemergence, scale 0 to 100 (0 no effect, 100 complete control)
Outline: as §1

wild oat = assay: Test C postemergence; type: in vivo, Avena fatua; details: for Plant response rating (0 to 100), Oat, Wild: 125 g ai/ha, postemergence; for Plant response rating, Oat, Wild: Postemergence, scale 0 to 100 (0 no effect, 100 complete control)
Outline: as §1

[5] = 16 g ai/ha, scale 0 to 100 (0 no effect, 100 complete control)
[6] = 62 g ai/ha, scale 0 (no effect) to 100 (complete control)
[7] = 125 g ai/ha, scale 0 (no effect) to 100 (complete control)

FCc1cccc(Oc2ncc(Cl)cn2)c1-n1cc(Br)cn1 [Compound 83]
100: Plant response rating, Foxtail, Giant (giant foxtail) | Foxtail, Giant plant response rating (giant foxtail) | Pigweed plant response rating (pigweed [2]; [6]) | Pigweed plant response rating (pigweed [2]; [7]) | Plant response rating, Pigweed (pigweed [2]) | Velvetleaf plant response rating (velvetleaf; [6]) | Velvetleaf plant response rating (velvetleaf; [7]) | Plant response rating, Velvetleaf (velvetleaf)
10: Plant response rating, Soybean (soybean) | Plant response rating, Oat, Wild (wild oat; 62 g ai/ha)
80: Plant response rating (0 to 100), Lambsquarters (lambsquarters) | Plant response rating, Lambsquarters (lambsquarters; 31 g ai/ha, 13 to 15 days)
70: Plant response rating (0 to 100), Ragweed (ragweed)
60: Soybean plant response rating (soybean; [6]) | Velvetleaf plant response rating (velvetleaf; [5]) | Plant response rating, Lambsquarters (lambsquarters; 62 g ai/ha) | Plant response rating, Ragweed (ragweed; 62 g ai/ha)
85: Pigweed plant response rating (pigweed [2]; [5]) | Plant response rating (0 to 100), Pigweed (pigweed [4])
5: Soybean plant response rating (soybean; [5]) | Plant response rating, Blackgrass (blackgrass; 31 g ai/ha, 13 to 15 days) | Plant response rating, Blackgrass (blackgrass; 62 g ai/ha) | Plant response rating (0 to 100), Ryegrass, Italian (Italian ryegrass) | Plant response rating, Ryegrass, Italian (Italian ryegrass; 62 g ai/ha) | Plant response rating (0 to 100), Wheat (wheat, winter) | Plant response rating (0 to 100), Nutsedge, Yellow (yellow nutsedge [3]) | Plant response rating, Nutsedge, Yellow (yellow nutsedge [3]; 62 g ai/ha) | Plant response rating (0 to 100), Oat, Wild (wild oat)
20: Plant response rating (0 to 100), Blackgrass (blackgrass)
0: Plant response rating, Rice (rice) | Nutsedge, Yellow plant response rating (yellow nutsedge [1]; [5]) | Nutsedge, Yellow plant response rating (yellow nutsedge [1]; [6]) | Plant response rating, Nutsedge, Yellow (yellow nutsedge [1]) | Blackgrass plant response rating (blackgrass; 13 to 15 days) | Plant response rating, Ryegrass, Italian (Italian ryegrass; 31 g ai/ha, 13 to 15 days) | Plant response rating, Wheat (wheat, winter; 31 g ai/ha, 13 to 15 days) | Plant response rating, Wheat (wheat, winter; 62 g ai/ha) | Plant response rating, Nutsedge, Yellow (yellow nutsedge [3]; 31 g ai/ha, 13 to 15 days) | Plant response rating, Oat, Wild (wild oat; 31 g ai/ha, 13 to 15 days)
15: Nutsedge, Yellow plant response rating (yellow nutsedge [1]; [7])
75: Soybean plant response rating (soybean; [7]) | Plant response rating, Pigweed (pigweed [4]; 31 g ai/ha, 13 to 15 days) | Plant response rating, Pigweed (pigweed [4]; 62 g ai/ha)
40: Plant response rating, Ragweed (ragweed; 31 g ai/ha, 13 to 15 days)

N#Cc1cccc(Oc2ncc(F)cn2)c1-n1cc(I)cn1 [Compound 86]
5: Nutsedge, Yellow plant response rating (yellow nutsedge [1]; [6]) | Blackgrass plant response rating (blackgrass; 13 to 15 days) | Plant response rating, Blackgrass (blackgrass; 31 g ai/ha, 13 to 15 days) | Plant response rating, Blackgrass (blackgrass; 62 g ai/ha) | Plant response rating (0 to 100), Ryegrass, Italian (Italian ryegrass) | Plant response rating, Ryegrass, Italian (Italian ryegrass; 62 g ai/ha) | Plant response rating (0 to 100), Nutsedge, Yellow (yellow nutsedge [3]) | Plant response rating, Nutsedge, Yellow (yellow nutsedge [3]; 62 g ai/ha) | Plant response rating, Oat, Wild (wild oat; 62 g ai/ha)
0: Plant response rating, Rice (rice) | Nutsedge, Yellow plant response rating (yellow nutsedge [1]; [5]) | Plant response rating, Nutsedge, Yellow (yellow nutsedge [1]) | Plant response rating, Ryegrass, Italian (Italian ryegrass; 31 g ai/ha, 13 to 15 days) | Plant response rating (0 to 100), Wheat (wheat, winter) | Plant response rating, Wheat (wheat, winter; 31 g ai/ha, 13 to 15 days) | Plant response rating, Wheat (wheat, winter; 62 g ai/ha) | Plant response rating, Nutsedge, Yellow (yellow nutsedge [3]; 31 g ai/ha, 13 to 15 days) | Plant response rating, Oat, Wild (wild oat; 31 g ai/ha, 13 to 15 days)
75: Soybean plant response rating (soybean; [6])
90: Pigweed plant response rating (pigweed [2]; [5])
10: Plant response rating (0 to 100), Blackgrass (blackgrass) | Plant response rating (0 to 100), Oat, Wild (wild oat)
85: Soybean plant response rating (soybean; [7]) | Plant response rating (0 to 100), Lambsquarters (lambsquarters) | Plant response rating (0 to 100), Ragweed (ragweed)
35: Nutsedge, Yellow plant response rating (yellow nutsedge [1]; [7]) | Soybean plant response rating (soybean; [5])
20: Velvetleaf plant response rating (velvetleaf; [5])
80: Plant response rating (0 to 100), Pigweed (pigweed [4])
65: Plant response rating, Lambsquarters (lambsquarters; 62 g ai/ha) | Plant response rating, Pigweed (pigweed [4]; 31 g ai/ha, 13 to 15 days) | Plant response rating, Pigweed (pigweed [4]; 62 g ai/ha)
45: Plant response rating, Soybean (soybean) | Plant response rating, Lambsquarters (lambsquarters; 31 g ai/ha, 13 to 15 days)
50: Plant response rating, Velvetleaf (velvetleaf) | Plant response rating, Ragweed (ragweed; 31 g ai/ha, 13 to 15 days)
55: Plant response rating, Ragweed (ragweed; 62 g ai/ha)
100: Plant response rating, Foxtail, Giant (giant foxtail) | Foxtail, Giant plant response rating (giant foxtail) | Pigweed plant response rating (pigweed [2]; [6]) | Pigweed plant response rating (pigweed [2]; [7]) | Plant response rating, Pigweed (pigweed [2]) | Velvetleaf plant response rating (velvetleaf; [6]) | Velvetleaf plant response rating (velvetleaf; [7])

N#Cc1cccc(Oc2ncc(Br)cn2)c1-n1cc(I)cn1 [Compound 88]
75: Plant response rating (0 to 100), Lambsquarters (lambsquarters) | Plant response rating, Lambsquarters (lambsquarters; 31 g ai/ha, 13 to 15 days)
15: Velvetleaf plant response rating (velvetleaf; [5])
60: Plant response rating, Lambsquarters (lambsquarters; 62 g ai/ha) | Plant response rating (0 to 100), Ragweed (ragweed)
40: Soybean plant response rating (soybean; [6])
10: Plant response rating (0 to 100), Blackgrass (blackgrass) | Plant response rating, Blackgrass (blackgrass; 31 g ai/ha, 13 to 15 days) | Plant response rating, Blackgrass (blackgrass; 62 g ai/ha) | Plant response rating, Ryegrass, Italian (Italian ryegrass; 62 g ai/ha) | Plant response rating (0 to 100), Nutsedge, Yellow (yellow nutsedge [3]) | Plant response rating, Nutsedge, Yellow (yellow nutsedge [3]; 62 g ai/ha) | Plant response rating (0 to 100), Oat, Wild (wild oat) | Plant response rating, Oat, Wild (wild oat; 62 g ai/ha)
55: Plant response rating, Ragweed (ragweed; 31 g ai/ha, 13 to 15 days) | Plant response rating, Ragweed (ragweed; 62 g ai/ha)
90: Soybean plant response rating (soybean; [7]) | Plant response rating (0 to 100), Pigweed (pigweed [4])
5: Nutsedge, Yellow plant response rating (yellow nutsedge [1]; [6]) | Nutsedge, Yellow plant response rating (yellow nutsedge [1]; [7]) | Plant response rating, Soybean (soybean) | Blackgrass plant response rating (blackgrass; 13 to 15 days) | Plant response rating, Ryegrass, Italian (Italian ryegrass; 31 g ai/ha, 13 to 15 days) | Plant response rating (0 to 100), Wheat (wheat, winter) | Plant response rating, Wheat (wheat, winter; 31 g ai/ha, 13 to 15 days) | Plant response rating, Wheat (wheat, winter; 62 g ai/ha) | Plant response rating, Nutsedge, Yellow (yellow nutsedge [3]; 31 g ai/ha, 13 to 15 days) | Plant response rating, Oat, Wild (wild oat; 31 g ai/ha, 13 to 15 days)
98: Plant response rating, Velvetleaf (velvetleaf)
100: Plant response rating, Foxtail, Giant (giant foxtail) | Foxtail, Giant plant response rating (giant foxtail) | Pigweed plant response rating (pigweed [2]; [5]) | Pigweed plant response rating (pigweed [2]; [6]) | Pigweed plant response rating (pigweed [2]; [7]) | Plant response rating, Pigweed (pigweed [2]) | Velvetleaf plant response rating (velvetleaf; [6]) | Velvetleaf plant response rating (velvetleaf; [7])
85: Plant response rating, Pigweed (pigweed [4]; 31 g ai/ha, 13 to 15 days) | Plant response rating, Pigweed (pigweed [4]; 62 g ai/ha)
0: Plant response rating, Rice (rice) | Nutsedge, Yellow plant response rating (yellow nutsedge [1]; [5]) | Plant response rating, Nutsedge, Yellow (yellow nutsedge [1]) | Soybean plant response rating (soybean; [5]) | Plant response rating (0 to 100), Ryegrass, Italian (Italian ryegrass)
